Reference: patent US11974973B2, “Ketone supplements-evoked effect on absence epilepsy by co-administration of uridine” (UNIVERSITY OF SOUTH FLORIDA, priority 2022, dated 2024)
“Also recorded” adds a separate entry of the source.

Legend:
WAG/Rij rats [1] = experiment: EEG recording of spike-wave discharges (SWD number, averaged and total SWD time) in WAG/Rij rat model of human absence epilepsy; format: in vivo
Excerpt: Free access to water and food (Table 1), as well as standard laboratory conditions were provided.
Rats were implanted with stainless steel screw electrodes for EEG recording under isoflurane-air mixture (2.0-2.5%) anesthesia. The screw electrodes were placed epidurally over the cortex of the frontal (AP: 2.0 mm; L: 2.1 mm) and parietal (AP: −6.5 mm; L: 2.1 mm) areas. Reference electrodes and ground electrodes were also stainless-steel screw electrodes (implanted above the cerebellar cortex). All electrodes were soldered to a 10-pin socket and permanently attached to the skull with dentacrylate cement (Ivoclar Vivadent AG, Schaan, Liechtenstein). Lidocaine ointment (5%; EGIS, Budapest, Hungary) was used as post-operative pain relief.
The EEG was recorded in a Faraday cage. […] The sampling rate was 500 Hz whereas the bandwidth of the EEG recording was 0.3 Hz to 150 Hz. Both the treatments and handling may induce stress and behavioral changes, which may modify the SWD number. […] For this reason, data of the first 30 min after the treatments was excluded from the analysis. Thus, the number and time of SWDs were considered between 30 and 270 min of post-treatment time (from 1.00 PM to 5.00 PM). SWDs (a train of asymmetric 7-11 Hz sharp spikes and slow waves) were cut off from the raw data files and were analyzed by FFT analysis. The recording periods were split into 60 min sections and evaluated separately. […]
Animals were assigned into eight groups (FIG. 1). To help the rats to adapt to the experimental procedures (e.g., EEG recording), after the two-week recovery period animals were handled daily and were connected to the EEG/CED system for 4 days (once a day, for 4.5 h) (group 1-8). Moreover, on same days, rats of group 7 and group 8 were also gavaged by water (2.5 g/kg/day) for the adaptation of rats to gavage method. To establish averaged control SWD numbers (group 1-8) and control average time and total time of SWDs (group 5, group 6, and group 8), all rats received 1 mL saline i.p. on 3 consecutive days (three control days, first treatment). Thirty min later, animals were injected again with 1 mL saline i.p. (second treatment, group 1-6) or gavaged by 2.5 g/kg water (second treatment, group 7 and 8). […] On the fourth day of experiments, the rats in group 1 and group 2 were i.p. injected with 1 mL 10% DMSO solution (first treatment) and, 30 min later, with 250 mg/kg, and 1000 mg/kg uridine in 1 mL saline (second treatment), respectively. On the fourth day, animals in group 3 first received 0.2 mg/kg DPCPX alone in 1 mL 10% DMSO solution (first treatment) followed by i.p. 1 mL saline (30 min later; second treatment) (FIG. 1). […] On that day, the animals in group 5 were injected with combined i.p. injection of DPCPX and uridine: 0.2 mg/kg DPCPX in 1 mL 10% DMSO solution (first treatment) and, 30 min later, 1000 mg/kg uridine in 1 mL saline (second treatment) were administered. […] Animals of group 7 received i.p. 1 mL saline (first treatment), and 30 min later, gavage of 2.5 g/kg KSMCT was carried out (second treatment) on the fourth day. […] On the fifth (PTC) day, i.p. administration of 1 mL saline (first treatment) was followed by gavage of 2.5 g/kg water (30 min later; second treatment; group 7 and 8) (FIG. 1).
Data were presented as means±standard error of the mean (S.E.M.). The pretreatment control values of SWD numbers (group 1-8) and SWD time (group 5, group 6, and group 8) were the grand average of SWD numbers and time recorded on the three control days.

WAG/Rij rats [2] = conditions: effective doses; previous studies [7,8,25,41,45]; cited from earlier work
[3] = DPCPX i.p. 0.2 mg/kg or SCH 58261 i.p. 0.5 mg/kg alone, PTC day (groups 3 and 4, FIG. 2C,D)

In the case of O=c1ccn([C@@H]2O[C@H](CO)[C@@H](O)[C@H]2O)c(=O)[nH]1 [uridine], the “SWD number compared to control” value (WAG/Rij rats [1]; uridine i.p. 250 mg/kg alone, post-treatment control (PTC) day (group 1, FIG. 2A)) is reported as “significant change in SWD number was not observed”, the “SWD number compared to control” value (WAG/Rij rats [1]; uridine i.p. 250 mg/kg alone, treatment day, second to fourth hours of recording (group 1, FIG. 2A), 250 mg/kg) is reported as “only a trend of non-significant decrease in SWD number” and the “SWD number compared to control” value (WAG/Rij rats [1]; uridine i.p. 1000 mg/kg alone, PTC day, 30-270 min (group 2, FIG. 2B)) is reported as “significantly decreased SWD number”. For the same compound, the “SWD number compared to control” value (WAG/Rij rats [1]; uridine i.p. 1000 mg/kg alone, treatment day, 90-270 min (group 2, FIG. 2B), 1000 mg/kg) was “significantly decreased the SWD number” and the “sleep-waking ratios and averaged time of SWDs” value (WAG/Rij rats [2]) was “did not change sleep-waking ratios and averaged time of SWDs”.

In the case of CCCn1c(=O)c2[nH]c(C3CCCC3)nc2n(CCC)c1=O [DPCPX, 1,3-dipropyl-8-cyclopentylxanthine], the “SWD number compared to control” value (WAG/Rij rats [1]; DPCPX i.p. 0.2 mg/kg alone, treatment day, 30-270 min (group 3, FIG. 2C), 0.2 mg/kg) is listed as “did not evoke proepileptic effect; also recorded: did not generate changes in SWD number”, the “SWD number compared to control” value (WAG/Rij rats [1]; [3]) is listed as “did not change SWD number on PTC days” and the “sleep-waking ratios and averaged time of SWDs” value (WAG/Rij rats [2]) is listed as “did not change sleep-waking ratios and averaged time of SWDs”.

For Nc1nc2c(cnn2CCc2ccccc2)c2nc(-c3ccco3)nn12 [SCH 58261, 7-(2-phenylethyl)-5-amino-2-(2-furyl)-pyrazolo-[4,3-e]-1,2,4-triazolo[1,5-c]pyrimidine], the “SWD number compared to control” value (WAG/Rij rats [1]; [3]) is given as “did not change SWD number on PTC days”, the “SWD number compared to control” value (WAG/Rij rats [1]; SCH 58261 i.p. 0.5 mg/kg alone, treatment day, four hours recording (group 4, FIG. 2D)) is given as “did not generate anti-epileptic effect” and the “sleep-waking ratios and averaged time of SWDs” value (WAG/Rij rats [2]) is given as “did not change sleep-waking ratios and averaged time of SWDs”.
